In PMC4883699 (Bioorganic & medicinal chemistry, 2009):
pIC50: −log10 of the molar value.

How the values were obtained:
[1] = in vitro; settings: African green monkey
[2] = Cytotoxicity on Vero cells; settings: African green monkey
[3] = test system: P. berghei (NK-65 strain); assay: In vivo antimalarial activity in P. berghei infected mice; design: species or system mice (Swiss Webster); settings: for apparent toxicity in vivo: oral, 30 mg/kg once daily for three days, mice
[4] = test system: Plasmodium falciparum (W2 clone, IndoChina, chloroquine resistant); assay: In vitro antimalarial activity, chloroquine resistant W2 clone; assay type: cell-based; settings: W2, read-out: P. falciparum (W2 Clone) IC50
[5] = test system: Plasmodium falciparum (D6 clone, Sierra Leone, chloroquine sensitive); assay: In vitro antimalarial activity, chloroquine sensitive D6 clone; assay type: cell-based; settings: D6, read-out: P. falciparum (D6 Clone) IC50
[6] = test system: Mycobacterium intracellulare; assay: In vitro antimicrobial activity, M. intracellulare; assay type: cell-based; settings: read-out: M. intracellulare IC50
[7] = test system: malaria parasite; settings: cited from earlier work; for reduction in parasitemia: oral, 2 × 100 μmol/kg; for survival times versus chloroquine or artemisinin treated mice: single dose 50 or 100 μmol/kg
[8] = test system: African green monkey kidney fibroblast cells (Vero); settings: cited from earlier work
[9] = Vero cells (African green monkey kidney fibroblast cells)

CCCCC(=O)Nc1cccc2c1[nH]c1c(C3=C[C@@]4(O)CC/C=C\CCCCN5CC[C@@H]3[C@]3(C[C@@H]6/C=C\CCCCN6[C@H]34)C5)nccc12 [Compound 19, 8-n-Pentamidomanzamine A]
pIC50 [1]: < 6.33

CC(C)(C)C(=O)Nc1ccc2[nH]c3c(C4=C[C@@]5(O)CC/C=C\CCCCN6CC[C@@H]4[C@]4(C[C@@H]7/C=C\CCCCN7[C@H]45)C6)nccc3c2c1 [Compound 10, 6-Pivalamidomanzamine A]
pIC50 [2, 9]: < 6.33

CC(C)C(=O)Nc1ccc2[nH]c3c(C4=C[C@@]5(O)CC/C=C\CCCCN6CC[C@@H]4[C@]4(C[C@@H]7/C=C\CCCCN7[C@H]45)C6)nccc3c2c1 [Compound 8, 6-Isobutamidomanzamine A]
pIC50 [2]: < 6.33

CC(C)(C)CC(=O)Nc1cccc2c1[nH]c1c(C3=C[C@@]4(O)CC/C=C\CCCCN5CC[C@@H]3[C@]3(C[C@@H]6/C=C\CCCCN6[C@H]34)C5)nccc12 [Compound 23, 8-(t-Butyl)-acetamidomanzamine A]
pIC50 [1]: < 6.33

O=C(Nc1ccc2[nH]c3c(C4=C[C@@]5(O)CC/C=C\CCCCN6CC[C@@H]4[C@]4(C[C@@H]7/C=C\CCCCN7[C@H]45)C6)nccc3c2c1)C1CCCCC1 [Compound 14, 6-Cyclohexamidomanzamine A]
apparent toxicity in vivo [3]: no apparent toxicity
pIC50 [2]: < 6.33

CCCCCC(=O)Nc1ccc2[nH]c3c(C4=C[C@@]5(O)CC/C=C\CCCCN6CC[C@@H]4[C@]4(C[C@@H]7/C=C\CCCCN7[C@H]45)C6)nccc3c2c1 [Compound 11, 6-n-Hexamidomanzamine A]
pIC50 [1]: < 6.33

CC(C)(C)CC(=O)Nc1ccc2[nH]c3c(C4=C[C@@]5(O)CC/C=C\CCCCN6CC[C@@H]4[C@]4(C[C@@H]7/C=C\CCCCN7[C@H]45)C6)nccc3c2c1 [Compound 13, 6-(t-Butyl)-acetamidomanzamine A]
pIC50 [2, 9]: < 6.33

CCC(=O)Nc1ccc2[nH]c3c(C4=C[C@@]5(O)CC/C=C\CCCCN6CC[C@@H]4[C@]4(C[C@@H]7/C=C\CCCCN7[C@H]45)C6)nccc3c2c1 [Compound 6, 6-n-Propamidomanzamine A]
pIC50 [2, 9]: < 6.33

CCN(CC)CCCC(C)Nc1ccnc2cc(Cl)ccc12 (centres unmarked) [Chloroquine]
pIC50 [4]: 6.32
suppression of the parasitemia ([3]; chloroquine control, 10 mg/kg, three doses): 100%
pIC50 [5]: 7.30

O[C@]12C=C(c3nccc4c3[nH]c3ccccc34)[C@@H]3CCN(CCCC/C=C\CC1)C[C@@]31C[C@@H]3/C=C\CCCCN3[C@H]12 [Compound 1, Manzamine A]
pIC50 [6]: 6.19
reduction in parasitemia [7]: 90%
survival times versus chloroquine or artemisinin treated mice [7]: significant improvements in survival times
pIC50 [2]: 6.44
TC50 against Vero cells [8]: 365 nM

Oc1cccc2c1[nH]c1c(C3=C[C@@]4(O)CC/C=C\CCCCN5CC[C@@H]3[C@]3(C[C@@H]6/C=C\CCCCN6[C@H]34)C5)nccc12 [Compound 2, 8-Hydroxymanzamine A]
reduction in parasitemia [7]: 90%
survival times versus chloroquine or artemisinin treated mice [7]: significant improvements in survival times

CCCCCC(=O)Nc1cccc2c1[nH]c1c(C3=C[C@@]4(O)CC/C=C\CCCCN5CC[C@@H]3[C@]3(C[C@@H]6/C=C\CCCCN6[C@H]34)C5)nccc12 [Compound 21, 8-n-Hexamidomanzamine A]
apparent toxicity in vivo [3]: no apparent toxicity

CC(C)C(=O)Nc1cccc2c1[nH]c1c(C3=C[C@@]4(O)CC/C=C\CCCCN5CC[C@@H]3[C@]3(C[C@@H]6/C=C\CCCCN6[C@H]34)C5)nccc12 [Compound 18, 8-Isobutamidomanzamine A]
pIC50 [2, 9]: < 6.33

O=C(Nc1cccc2c1[nH]c1c(C3=C[C@@]4(O)CC/C=C\CCCCN5CC[C@@H]3[C@]3(C[C@@H]6/C=C\CCCCN6[C@H]34)C5)nccc12)C1CCCCC1 [Compound 24, 8-Cyclohexamidomanzamine A]
pIC50 [1]: < 6.33

CCCCC(=O)Nc1ccc2[nH]c3c(C4=C[C@@]5(O)CC/C=C\CCCCN6CC[C@@H]4[C@]4(C[C@@H]7/C=C\CCCCN7[C@H]45)C6)nccc3c2c1 [Compound 9, 6-n-Pentamidomanzamine A]
pIC50 [1]: < 6.33
